Measurements as given in patent US9856279B2 (AGIOS PHARMACEUTICALS, INC, priority 2011, dated 2018).

Key:
HT1080 cells = assay: Cellular assay for IDH1m inhibitors: inhibition of 2-HG production (LC-MS, 48 hours) in HT1080 cells; format: cell-based; settings: Homo sapiens, HT-1080; inhibition of 2-HG production, HT1080 cells; read-out: HT1080 IC50
Method in brief: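 Read-out: 2-HG in culture medium by LC-MS after 48 h compound exposure; IC50 = 50% reduction vs DMSO control. Cells plated 5000/well in DMEM/10% FBS, 37 °C, 5% CO2; DMSO 0.2% final.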

U87MG cells = assay: Cellular assay for IDH1m inhibitors: inhibition of 2-HG production (LC-MS, 48 hours) in U87MG cells; format: cell-based; settings: Homo sapiens, U-87 MG, inhibition of 2-HG production, U87R132H cells; read-out: U87R132H IC50
Description: Cells (e.g., HT1080 or U87MG) and are grown in T125 flasks in DMEM containing 10% FBS, 1× penicillin/streptomycin and 500 ug/mL G418. They are harvested by trypsin and seeded into 96 well white bottom plates at a density of 5000 cell/well in 100 ul/well in DMEM with 10% FBS. No cells are plates in columns 1 and 12. Cells are incubated overnight at 37° C. in 5% CO2. The next day compounds are made up at 2× concentration and 100 ul are added to each cell well. The final concentration of DMSO is 0.2% and the DMSO control wells are plated in row G. The plates are then placed in the incubator for 48 hours. At 48 hours, 100 μl of media is removed from each well and analyzed by LC-MS for 2-HG concentrations. The cell plate is placed back in the incubator for another 24 hours. At 72 hours post compound addition, 10 mL/plate of Promega Cell Titer Glo reagent is thawed and mixed. The cell plate is removed from the incubator and allowed to equilibrate to room temperature. Then 100 ul of reagent is added to each well of media. The cell plate is then placed on an orbital shaker for 10 minutes and then allowed to sit at room temperature for 20 minutes. The plate is then read for luminescence with an integration time of 500 ms.
The IC50 for inhibition of 2-HG production (concentration of test compound to reduce 2HG production by 50% compared to control) in these two cell lines for various compounds of formula I is set forth in Table 4 above.

IDH1 R132H = IDH1 R132H (Homo sapiens, UniProt O75874, R132H); assay: Assay for IDH1 R132H inhibitors (NADPH/aKG, resazurin detection); format: biochemical; settings: enzyme assay of Example 12; read-out: IDH1R132H IC50
Method in brief: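 Read-out is resorufin fluorescence (Ex544/Em590) 5 min after adding a 30 μM resazurin detection mix. Before that, mutant enzyme (0.2 μg/ml in its mix) ran 50 min at room temperature with compound, 8 uM NADPH and 2 mM aKG (mix levels) in Tris pH 7.5 with NaCl, MgCl2, BSA.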

Chain of IDH1 R132H (O75874 whole entry R132H): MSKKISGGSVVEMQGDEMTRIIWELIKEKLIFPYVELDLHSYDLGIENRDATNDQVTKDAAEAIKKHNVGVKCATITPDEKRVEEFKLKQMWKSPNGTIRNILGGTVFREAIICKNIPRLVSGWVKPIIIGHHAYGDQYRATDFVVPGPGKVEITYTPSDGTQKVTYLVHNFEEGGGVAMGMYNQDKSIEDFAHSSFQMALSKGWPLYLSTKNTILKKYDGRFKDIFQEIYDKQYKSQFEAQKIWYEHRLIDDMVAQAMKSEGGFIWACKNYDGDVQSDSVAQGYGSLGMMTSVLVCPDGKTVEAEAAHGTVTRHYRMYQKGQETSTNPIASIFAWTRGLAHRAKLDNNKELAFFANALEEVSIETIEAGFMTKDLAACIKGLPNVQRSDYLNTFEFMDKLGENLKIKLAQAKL

| SMILES | IC50 (HT1080 cells) | IC50 (U87MG cells) | IC50 (IDH1 R132H) |
| --- | --- | --- | --- |
| COCCC(=O)N1CCN(c2nc(C3CC3)c(-c3cccc(F)c3)c(C)c2C#N)C[C@H]1C [Compound 265, (R)-6-cyclopropyl-5-(3-fluorophenyl)-2-(4-(3-methoxypropanoyl)-3-methylpiperazin-1-yl)-4-methylnicotinonitrile] | 1000 to 10000 nM | 1000 to 10000 nM | < 500 nM |
| COCCC(=O)N1CCN(c2nc(C3CC3)c(-c3ccc(F)nc3)c(C)c2C#N)C[C@H]1C [Compound 346] | 1000 to 10000 nM | 500 to 1000 nM | < 500 nM |
| N#Cc1cc(-c2cnnc(OS(=O)(=O)C(F)(F)F)c2)c(C2CC2)nc1N1CCN(C(=O)C2CC2)[C@H](C2CC2)C1 [Compound 687, (R)-5-(5-cyano-6-(4-(cyclopropanecarbonyl)-3-cyclopropylpiperazin-1-yl)-2-cyclopropylpyridin-3-yl)pyridazin-3-yl trifluoromethanesulfonate] | – | 500 to 1000 nM | < 500 nM |
| CCO[C@H]1C[C@@H]1C(=O)N1CCN(c2nc(C3CC3)c(-c3cccc4cnccc34)cc2C#N)C[C@H]1C1CC1 [Compound 518, 6-cyclopropyl-2-((R)-3-cyclopropyl-4-((1S,2S)-2-ethoxycyclopropanecarbonyl)piperazin-1-yl)-5-(isoquinolin-5-yl)nicotinonitrile] | – | < 500 nM | < 500 nM |
| C=Cc1cc(-c2cc(C#N)c(N3CCN(C(=O)COC)[C@H](C4CC4)C3)nc2C2CC2)nc(N)n1 [Compound 759, (R)-5-(2-amino-6-vinylpyrimidin-4-yl)-6-cyclopropyl-2-(3-cyclopropyl-4-(2-methoxyacetyl)piperazin-1-yl)nicotinonitrile] | – | < 500 nM | < 500 nM |
| C=Cc1ncc2c(-c3cc(C#N)c(N4CCN(C(=O)CCO)[C@H](C(C)C)C4)nc3C3CC3)cccc2n1 [Compound 650, (R)-6-cyclopropyl-2-(4-(3-hydroxypropanoyl)-3-isopropylpiperazin-1-yl)-5-(2-vinylquinazolin-5-yl)nicotinonitrile] | – | < 500 nM | < 500 nM |
| C=Cc1ccnc(Nc2cc(C#N)c(N3CCN(C(=O)CCOC)[C@H](C(C)C)C3)nc2C2CC2)c1 [Compound 758, (R)-6-cyclopropyl-2-(3-isopropyl-4-(3-methoxypropanoyl)piperazin-1-yl)-5-((4-vinylpyridin-2-yl)amino)nicotinonitrile] | – | < 500 nM | < 500 nM |
| C=Cc1ccnc(Nc2cc(C#N)c(N3CCN(C(=O)CCO)[C@H](C(C)C)C3)nc2C2CC2)c1 [Compound 757, (R)-6-cyclopropyl-2-(4-(3-hydroxypropanoyl)-3-isopropylpiperazin-1-yl)-5-((4-vinylpyridin-2-yl)amino)nicotinonitrile] | – | < 500 nM | < 500 nM |
| C=Cc1cc(-c2c(C3CC3)nc(N3CCN(C(=O)CCO)[C@H](C(C)C)C3)c(C#N)c2C)cnn1 [Compound 773, (R)-6-cyclopropyl-2-(4-(3-hydroxypropanoyl)-3-isopropylpiperazin-1-yl)-4-methyl-5-(6-vinylpyridazin-4-yl)nicotinonitrile] | – | < 500 nM | < 500 nM |
| C=Cc1ncc2c(-c3cc(C#N)c(N4CCN(C(=O)CCO)[C@H](C5CC5)C4)nc3C3CC3)cccc2n1 [Compound 651, (R)-6-cyclopropyl-2-(3-cyclopropyl-4-(3-hydroxypropanoyl)piperazin-1-yl)-5-(2-vinylquinazolin-5-yl)nicotinonitrile] | – | < 500 nM | < 500 nM |
| C=Cc1cc(-c2cc(C#N)c(N3CCN(C(=O)CCOC)[C@H](C4CC4)C3)nc2C2CC2)c2ccncc2n1 [Compound 658, (R)-6-cyclopropyl-2-(3-cyclopropyl-4-(3-methoxypropanoyl)piperazin-1-yl)-5-(2-vinyl-1,7-naphthyridin-4-yl)nicotinonitrile] | – | < 500 nM | < 500 nM |

Second part, the compound after the results:

| IC50 (HT1080 cells) | IC50 (U87MG cells) | IC50 (IDH1 R132H) | SMILES |
| --- | --- | --- | --- |
| < 500 nM | < 500 nM | < 500 nM | N#Cc1cc(Nc2ccnc(Cl)c2)c(C2CC2)nc1N1CCN(C(=O)C[C@H]2CCO2)[C@H](C2CC2)C1 [Compound 748, 5-(2-chloropyridin-4-ylamino)-6-cyclopropyl-2-((R)-3-cyclopropyl-4-(2-((R)-oxetan-2-yl)acetyl)piperazin-1-yl)nicotinonitrile] |
| < 500 nM | < 500 nM | < 500 nM | C=Cc1cc(-c2cc(C#N)c(N3CCN(C(=O)CCOC)[C@H](C(C)C)C3)nc2C2CC2)ncn1 [Compound 639, (R)-6-cyclopropyl-2-(3-isopropyl-4-(3-methoxypropanoyl)piperazin-1-yl)-5-(6-vinylpyrimidin-4-yl)nicotinonitrile] |
| < 500 nM | < 500 nM | < 500 nM | C=Cc1cnnc(-c2c(C3CC3)nc(N3CCN(C(=O)CCO)[C@H](C(C)C)C3)c(C#N)c2C)c1 [Compound 784, (R)-6-cyclopropyl-2-(4-(3-hydroxypropanoyl)-3-isopropylpiperazin-1-yl)-4-methyl-5-(5-vinylpyridazin-3-yl)nicotinonitrile] |
| < 500 nM | < 500 nM | < 500 nM | C=Cc1ccc2c(-c3cc(C#N)c(N4CCN(C(=O)CCO)[C@H](C5CC5)C4)nc3C3CC3)cncc2n1 [Compound 735, (R)-6-cyclopropyl-2-(3-cyclopropyl-4-(3-hydroxypropanoyl)piperazin-1-yl)-5-(2-vinyl-1,7-naphthyridin-5-yl)nicotinonitrile] |
| < 500 nM | < 500 nM | 500 to 1000 nM | CCO[C@@H]1C[C@@H]1C(=O)N1CCN(c2nc(C3CC3)c(-c3cccc4cnccc34)cc2C#N)C[C@H]1C1CC1 [Compound 526, 6-cyclopropyl-2-((R)-3-cyclopropyl-4-((1S,2R)-2-ethoxycyclopropanecarbonyl)piperazin-1-yl)-5-(isoquinolin-5-yl)nicotinonitrile] |
| < 500 nM | < 500 nM | < 500 nM | C=Cc1ccnc(Nc2cc(C#N)c(N3CCN(C(=O)CCOC)[C@H](C)C3)nc2C2CC2)n1 [Compound 736, (R)-6-cyclopropyl-2-(4-(3-methoxypropanoyl)-3-methylpiperazin-1-yl)-5-((4-vinylpyrimidin-2-yl)amino)nicotinonitrile] |
| < 500 nM | < 500 nM | < 500 nM | C=Cc1cc(-c2cc(C#N)c(N3CCN(C(=O)CCOC)[C@H](C)C3)nc2C2CC2)c2ccncc2n1 [Compound 580, (R)-6-cyclopropyl-2-(4-(3-methoxypropanoyl)-3-methylpiperazin-1-yl)-5-(2-vinyl-1,7-naphthyridin-4-yl)nicotinonitrile] |
| < 500 nM | < 500 nM | – | C=Cc1cc(-c2cc(C#N)c(N3CCN(C(=O)C4CC4)[C@H](C4CC4)C3)nc2C2CC2)nc(N)n1 [Compound 700, (R)-5-(2-amino-6-vinylpyrimidin-4-yl)-2-(4-(cyclopropanecarbonyl)-3-cyclopropylpiperazin-1-yl)-6-cyclopropylnicotinonitrile] |
| < 500 nM | < 500 nM | – | N#Cc1cc(Nc2cc(C#N)c(N3CCN(C(=O)C[C@H]4CCO4)[C@H](C4CC4)C3)nc2C2CC2)ccn1 [Compound 783, 4-(5-cyano-2-cyclopropyl-6-((R)-3-cyclopropyl-4-(2-((R)-oxetan-2-yl)acetyl)piperazin-1-yl)pyridin-3-ylamino)picolinonitrile] |
